From publication PMC8371461 (Frontiers in Pharmacology, 2021)

What was measured:
TRKC = target: T1, TRKC (Homo sapiens, UniProt Q16288); test: kinome scan; format: binding; conditions: 10 µM
T1 construct: purchased DiscoverX (KINOMEscan)

EIF2AK1 = target: T2, EIF2AK1 (Homo sapiens, UniProt Q9BQI3); test: kinome scan; format: binding; conditions: 10 µM
T2 construct: purchased DiscoverX (KINOMEscan)

[1] = target: T3, ABL1(M351T)-phosphorylated (Homo sapiens, UniProt P00519, M351T); test: kinome scan; format: binding; conditions: 10 µM
T3 construct: purchased DiscoverX (KINOMEscan)

BRAF(V600E) = target: T4, BRAF(V600E) (Homo sapiens, UniProt P15056, V600E); test: kinome scan; format: binding; conditions: 10 µM
T4 construct: purchased DiscoverX (KINOMEscan)

MLK1 = target: T5, MLK1 (Homo sapiens, UniProt P80192); test: kinome scan; format: binding; conditions: 10 µM
T5 construct: purchased DiscoverX (KINOMEscan)

FAK = target: T6, FAK (Homo sapiens, UniProt Q05397); test: kinome scan; format: binding; conditions: 10 µM
T6 construct: purchased DiscoverX (KINOMEscan)

BMX = target: T7, BMX (Homo sapiens, UniProt P51813); test: kinome scan; format: binding; conditions: 10 µM
T7 construct: purchased DiscoverX (KINOMEscan)

HUNK = target: T8, HUNK (Homo sapiens, UniProt P57058); test: kinome scan; format: binding; conditions: 10 µM
T8 construct: purchased DiscoverX (KINOMEscan)

EGFR(G719C) = target: T9, EGFR(G719C) (Homo sapiens, UniProt P00533, G719C); test: kinome scan; format: binding; conditions: 10 µM
T9 construct: purchased DiscoverX (KINOMEscan)

CLK3 = target: T10, CLK3 (Homo sapiens, UniProt P49761); test: kinome scan; format: binding; conditions: 10 µM
T10 construct: purchased DiscoverX (KINOMEscan)

MAP4K2 = target: T11, MAP4K2 (Homo sapiens, UniProt Q12851); test: kinome scan; format: binding; conditions: 10 µM
T11 construct: purchased DiscoverX (KINOMEscan)

FGFR2 = target: T12, FGFR2 (Homo sapiens, UniProt P21802); test: kinome scan; format: binding; conditions: 10 µM
T12 construct: purchased DiscoverX (KINOMEscan)

MEK2 = target: T13, MEK2 (Homo sapiens, UniProt P36507); test: kinome scan; format: binding; conditions: 10 µM
T13 construct: purchased DiscoverX (KINOMEscan)

MEK6 = target: T14, MEK6 (Homo sapiens, UniProt P52564); test: kinome scan; format: binding; conditions: 10 µM
T14 construct: purchased DiscoverX (KINOMEscan)

PDGFRB = target: T15, PDGFRB (Homo sapiens, UniProt P09619); test: kinome scan; format: binding; conditions: 10 µM
T15 construct: purchased DiscoverX (KINOMEscan)

ERK4 = target: T16, ERK4 (Homo sapiens, UniProt P31152); test: kinome scan; format: binding; conditions: 10 µM
T16 construct: purchased DiscoverX (KINOMEscan)

FLT4 = target: T17, FLT4 (Homo sapiens, UniProt P35916); test: kinome scan; format: binding; conditions: 10 µM
T17 construct: purchased DiscoverX (KINOMEscan)

LOK = target: T18, LOK (Homo sapiens, UniProt O94804); test: kinome scan; format: binding; conditions: 10 µM
T18 construct: purchased DiscoverX (KINOMEscan)

ASK1 = target: T19, ASK1 (Homo sapiens, UniProt Q99683); test: kinome scan; format: binding; conditions: 10 µM
T19 construct: purchased DiscoverX (KINOMEscan)

[2] = target: T20, ABL1(Q252H)-nonphosphorylated (Homo sapiens, UniProt P00519, Q252H); test: kinome scan; format: binding; conditions: 10 µM
T20 construct: purchased DiscoverX (KINOMEscan)

p38-delta = target: T21, p38-delta (Homo sapiens, UniProt O15264); test: kinome scan; format: binding; conditions: 10 µM
T21 construct: purchased DiscoverX (KINOMEscan)

BRSK1 = target: T22, BRSK1 (Homo sapiens, UniProt Q8TDC3); test: kinome scan; format: binding; conditions: 10 µM
T22 construct: purchased DiscoverX (KINOMEscan)

SgK110 = target: T23, SgK110 (Homo sapiens, UniProt P0C264); test: kinome scan; format: binding; conditions: 10 µM
T23 construct: purchased DiscoverX (KINOMEscan)

[3] = target: T24, RPS6KA4(Kin.Dom.2-C-terminal) (Homo sapiens, UniProt O75676); test: kinome scan; format: binding; conditions: 10 µM
T24 construct: RPS6KA4(Kin.Dom.2-C-terminal); purchased DiscoverX (KINOMEscan)

LYN = target: T25, LYN (Homo sapiens, UniProt P07948); test: kinome scan; format: binding; conditions: 10 µM
T25 construct: purchased DiscoverX (KINOMEscan)

NEK9 = target: T26, NEK9 (Homo sapiens, UniProt Q8TD19); test: kinome scan; format: binding; conditions: 10 µM
T26 construct: purchased DiscoverX (KINOMEscan)

TRPM6 = target: T27, TRPM6 (Homo sapiens, UniProt Q9BX84); test: kinome scan; format: binding; conditions: 10 µM
T27 construct: purchased DiscoverX (KINOMEscan)

TRKA = target: T28, TRKA (Homo sapiens, UniProt P04629); test: kinome scan; format: binding; conditions: 10 µM
T28 construct: purchased DiscoverX (KINOMEscan)

IRAK4 = target: T29, IRAK4 (Homo sapiens, UniProt Q9NWZ3); test: kinome scan; format: binding; conditions: 10 µM
T29 construct: purchased DiscoverX (KINOMEscan)

ADCK3 = target: T30, ADCK3 (Homo sapiens, UniProt Q8NI60); test: kinome scan; format: binding; conditions: 10 µM
T30 construct: purchased DiscoverX (KINOMEscan)

[4] = tested on: Hemoglobin beta chain splicing at IVS2 705 locus; set-up: method as in CHEMBL1614204; conditions: reported activity, data mining; ref CHEMBL1614204; cited from earlier work
DCAMKL3 = target: T31, DCAMKL3 (Homo sapiens, UniProt Q9C098); test: kinome scan; format: binding; conditions: 10 µM
T31 construct: purchased DiscoverX (KINOMEscan)

DRAK1 = target: T32, DRAK1 (Homo sapiens, UniProt Q9UEE5); test: kinome scan; format: binding; conditions: 10 µM
T32 construct: purchased DiscoverX (KINOMEscan)

PIP5K2C = target: T33, PIP5K2C (Homo sapiens, UniProt Q8TBX8); test: kinome scan; format: binding
T33 construct: purchased DiscoverX (KINOMEscan)

GCN2(Kin.Dom.2S808G) = target: T34, GCN2(Kin.Dom.2S808G) (Homo sapiens, UniProt Q9P2K8, S808G); test: kinome scan; format: binding; conditions: 10 µM
T34 construct: GCN2(Kin.Dom.2S808G); purchased DiscoverX (KINOMEscan)

MLCK = target: T35, MLCK (Homo sapiens, UniProt Q32MK0); test: kinome scan; format: binding; conditions: 10 µM
T35 construct: purchased DiscoverX (KINOMEscan)

TNK2 = target: T36, TNK2 (Homo sapiens, UniProt Q07912); test: kinome scan; format: binding; conditions: 10 µM
T36 construct: purchased DiscoverX (KINOMEscan)

T33 sequence (Q8TBX8 whole entry): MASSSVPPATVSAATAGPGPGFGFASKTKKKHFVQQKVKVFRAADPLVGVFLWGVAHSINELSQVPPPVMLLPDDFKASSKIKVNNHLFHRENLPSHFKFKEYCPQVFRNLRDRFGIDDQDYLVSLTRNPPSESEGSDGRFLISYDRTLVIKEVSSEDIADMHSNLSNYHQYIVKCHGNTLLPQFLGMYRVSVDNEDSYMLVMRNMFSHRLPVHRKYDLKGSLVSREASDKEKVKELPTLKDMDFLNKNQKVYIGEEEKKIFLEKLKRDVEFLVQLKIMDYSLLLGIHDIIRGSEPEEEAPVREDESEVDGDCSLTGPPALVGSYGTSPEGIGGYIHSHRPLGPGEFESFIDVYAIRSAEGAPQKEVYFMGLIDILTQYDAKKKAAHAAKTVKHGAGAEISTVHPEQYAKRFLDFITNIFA
T32 sequence (Q9UEE5 whole entry): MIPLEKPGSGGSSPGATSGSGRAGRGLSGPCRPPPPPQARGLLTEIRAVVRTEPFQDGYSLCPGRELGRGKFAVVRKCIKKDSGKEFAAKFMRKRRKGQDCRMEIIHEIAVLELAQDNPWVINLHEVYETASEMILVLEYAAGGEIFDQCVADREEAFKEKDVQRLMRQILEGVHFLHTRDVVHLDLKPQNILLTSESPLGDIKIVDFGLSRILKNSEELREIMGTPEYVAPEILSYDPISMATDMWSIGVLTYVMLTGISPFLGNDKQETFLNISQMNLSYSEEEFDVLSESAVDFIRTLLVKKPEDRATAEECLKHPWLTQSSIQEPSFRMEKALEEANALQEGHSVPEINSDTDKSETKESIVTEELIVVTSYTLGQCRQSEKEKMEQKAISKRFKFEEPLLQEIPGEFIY
T1 sequence (Q16288 32-839): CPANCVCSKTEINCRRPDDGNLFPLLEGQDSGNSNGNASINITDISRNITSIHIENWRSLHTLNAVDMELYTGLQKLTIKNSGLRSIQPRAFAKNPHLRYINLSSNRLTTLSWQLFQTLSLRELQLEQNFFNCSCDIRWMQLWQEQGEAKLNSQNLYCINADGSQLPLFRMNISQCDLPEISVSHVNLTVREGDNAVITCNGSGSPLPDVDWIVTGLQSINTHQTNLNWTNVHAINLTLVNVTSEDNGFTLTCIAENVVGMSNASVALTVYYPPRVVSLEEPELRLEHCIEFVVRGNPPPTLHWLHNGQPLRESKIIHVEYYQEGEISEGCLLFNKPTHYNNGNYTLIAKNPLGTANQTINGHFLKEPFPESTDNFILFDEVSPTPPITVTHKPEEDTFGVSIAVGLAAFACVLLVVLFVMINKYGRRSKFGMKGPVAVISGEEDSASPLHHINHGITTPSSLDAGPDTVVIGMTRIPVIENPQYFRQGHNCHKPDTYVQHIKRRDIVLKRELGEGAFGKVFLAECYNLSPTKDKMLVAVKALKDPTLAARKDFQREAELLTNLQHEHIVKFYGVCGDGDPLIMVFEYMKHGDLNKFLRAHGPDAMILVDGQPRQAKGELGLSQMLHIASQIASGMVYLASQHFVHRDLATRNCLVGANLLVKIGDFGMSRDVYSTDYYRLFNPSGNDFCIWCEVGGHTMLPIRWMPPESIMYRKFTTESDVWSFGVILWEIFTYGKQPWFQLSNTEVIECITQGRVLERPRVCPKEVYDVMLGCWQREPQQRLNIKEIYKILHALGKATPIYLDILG
T5 sequence (P80192 whole entry): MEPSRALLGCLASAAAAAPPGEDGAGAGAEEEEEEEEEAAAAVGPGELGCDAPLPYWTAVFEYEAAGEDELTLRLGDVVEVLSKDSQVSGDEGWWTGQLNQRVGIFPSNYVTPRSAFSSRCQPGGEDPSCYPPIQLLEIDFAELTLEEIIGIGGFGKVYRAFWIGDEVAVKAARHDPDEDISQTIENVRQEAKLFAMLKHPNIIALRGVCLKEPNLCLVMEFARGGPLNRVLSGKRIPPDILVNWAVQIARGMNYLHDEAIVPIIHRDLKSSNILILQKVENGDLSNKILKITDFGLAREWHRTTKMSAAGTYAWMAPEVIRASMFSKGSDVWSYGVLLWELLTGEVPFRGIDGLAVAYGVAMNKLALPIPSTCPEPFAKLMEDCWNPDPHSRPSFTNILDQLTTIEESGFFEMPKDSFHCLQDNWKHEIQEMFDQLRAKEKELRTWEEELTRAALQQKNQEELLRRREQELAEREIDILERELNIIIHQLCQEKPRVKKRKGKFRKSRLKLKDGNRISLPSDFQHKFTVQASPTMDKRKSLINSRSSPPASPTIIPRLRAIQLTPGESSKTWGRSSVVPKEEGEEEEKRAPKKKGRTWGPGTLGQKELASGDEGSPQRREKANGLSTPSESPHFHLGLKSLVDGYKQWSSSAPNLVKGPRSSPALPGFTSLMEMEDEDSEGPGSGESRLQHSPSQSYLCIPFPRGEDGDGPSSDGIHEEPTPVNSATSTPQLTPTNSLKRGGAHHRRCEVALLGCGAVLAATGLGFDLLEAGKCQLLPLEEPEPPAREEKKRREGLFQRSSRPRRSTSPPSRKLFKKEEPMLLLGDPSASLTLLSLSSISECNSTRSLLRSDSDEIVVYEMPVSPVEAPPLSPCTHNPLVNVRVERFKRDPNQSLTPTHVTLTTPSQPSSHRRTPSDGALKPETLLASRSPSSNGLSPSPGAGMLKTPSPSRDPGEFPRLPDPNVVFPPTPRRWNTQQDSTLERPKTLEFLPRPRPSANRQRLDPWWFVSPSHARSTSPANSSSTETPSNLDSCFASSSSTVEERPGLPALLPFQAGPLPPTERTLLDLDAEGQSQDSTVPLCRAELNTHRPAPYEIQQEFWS
T14 sequence (P52564 whole entry): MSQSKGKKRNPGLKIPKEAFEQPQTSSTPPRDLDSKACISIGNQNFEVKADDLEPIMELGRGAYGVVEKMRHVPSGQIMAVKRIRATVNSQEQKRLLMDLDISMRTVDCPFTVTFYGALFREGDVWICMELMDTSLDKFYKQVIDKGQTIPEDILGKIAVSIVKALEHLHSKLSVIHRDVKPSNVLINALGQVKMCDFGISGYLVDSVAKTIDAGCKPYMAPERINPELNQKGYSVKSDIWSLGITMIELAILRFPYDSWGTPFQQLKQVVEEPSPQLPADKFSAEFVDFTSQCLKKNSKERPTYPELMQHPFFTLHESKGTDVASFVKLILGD
T18 sequence (O94804 whole entry): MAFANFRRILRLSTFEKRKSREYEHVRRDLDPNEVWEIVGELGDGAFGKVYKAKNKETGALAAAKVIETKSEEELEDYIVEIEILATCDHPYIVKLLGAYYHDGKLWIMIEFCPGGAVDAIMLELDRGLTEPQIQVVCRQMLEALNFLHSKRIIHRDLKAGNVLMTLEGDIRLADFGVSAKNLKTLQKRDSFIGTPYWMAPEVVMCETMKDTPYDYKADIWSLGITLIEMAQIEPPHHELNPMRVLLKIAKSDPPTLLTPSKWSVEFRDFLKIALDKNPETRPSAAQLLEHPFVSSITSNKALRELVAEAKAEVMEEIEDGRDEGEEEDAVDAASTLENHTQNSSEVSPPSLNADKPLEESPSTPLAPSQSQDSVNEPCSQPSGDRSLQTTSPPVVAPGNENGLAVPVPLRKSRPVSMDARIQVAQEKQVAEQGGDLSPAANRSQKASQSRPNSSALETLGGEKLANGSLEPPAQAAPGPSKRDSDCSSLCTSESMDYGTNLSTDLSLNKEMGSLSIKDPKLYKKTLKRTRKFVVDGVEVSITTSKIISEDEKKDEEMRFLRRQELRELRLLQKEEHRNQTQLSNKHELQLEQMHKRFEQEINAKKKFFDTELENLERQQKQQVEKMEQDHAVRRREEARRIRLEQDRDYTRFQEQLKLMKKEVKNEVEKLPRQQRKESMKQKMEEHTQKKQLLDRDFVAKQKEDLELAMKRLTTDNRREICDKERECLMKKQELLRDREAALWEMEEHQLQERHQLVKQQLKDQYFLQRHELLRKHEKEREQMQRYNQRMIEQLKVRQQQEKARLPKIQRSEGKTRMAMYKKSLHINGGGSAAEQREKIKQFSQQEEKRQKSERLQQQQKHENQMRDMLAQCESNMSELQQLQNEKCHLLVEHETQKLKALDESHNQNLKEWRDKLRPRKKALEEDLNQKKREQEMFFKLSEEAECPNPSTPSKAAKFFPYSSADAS
T10 sequence (P49761 whole entry): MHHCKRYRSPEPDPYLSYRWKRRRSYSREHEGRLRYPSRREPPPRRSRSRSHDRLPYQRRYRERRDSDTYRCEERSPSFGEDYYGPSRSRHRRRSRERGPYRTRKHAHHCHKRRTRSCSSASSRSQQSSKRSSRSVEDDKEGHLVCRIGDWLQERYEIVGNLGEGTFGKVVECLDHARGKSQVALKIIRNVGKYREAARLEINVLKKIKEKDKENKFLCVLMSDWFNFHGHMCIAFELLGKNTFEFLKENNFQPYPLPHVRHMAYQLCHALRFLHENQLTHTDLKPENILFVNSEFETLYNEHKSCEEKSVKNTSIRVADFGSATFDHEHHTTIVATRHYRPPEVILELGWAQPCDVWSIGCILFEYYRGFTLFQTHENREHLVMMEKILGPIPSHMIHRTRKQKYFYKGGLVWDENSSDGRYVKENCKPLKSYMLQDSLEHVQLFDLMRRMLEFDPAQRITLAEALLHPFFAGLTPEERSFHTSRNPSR
T34 sequence (Q9P2K8 590-1001 S808G limits assumed): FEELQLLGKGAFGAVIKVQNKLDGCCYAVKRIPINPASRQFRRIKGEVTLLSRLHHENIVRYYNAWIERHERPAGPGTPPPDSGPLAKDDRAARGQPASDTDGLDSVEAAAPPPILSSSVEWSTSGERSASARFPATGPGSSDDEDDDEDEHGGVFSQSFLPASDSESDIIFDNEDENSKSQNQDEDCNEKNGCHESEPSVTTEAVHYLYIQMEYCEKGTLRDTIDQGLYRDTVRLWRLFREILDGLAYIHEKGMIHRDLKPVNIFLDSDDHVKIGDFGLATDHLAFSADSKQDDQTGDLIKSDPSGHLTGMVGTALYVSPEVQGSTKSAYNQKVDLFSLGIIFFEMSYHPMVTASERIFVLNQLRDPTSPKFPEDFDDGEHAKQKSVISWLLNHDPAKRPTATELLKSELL

Structure (SMILES): Nc1ccc(N=Nc2ccccc2)c(N)n1 [phenazopyridine, 2,6-diamino-3-(phenylazo)pyridine]
- kinase inhibition (TRKC): 90
- kinase inhibition (EIF2AK1): 100
- kinase inhibition [1]: 85
- kinase inhibition (BRAF(V600E)): 92
- kinase inhibition (MLK1): 87
- kinase inhibition (FAK): 96
- kinase inhibition (BMX): 100
- kinase inhibition (HUNK): 100
- kinase inhibition (EGFR(G719C)): 80
- kinase inhibition (CLK3): 99
- kinase inhibition (MAP4K2): 65
- kinase inhibition (FGFR2): 93
- kinase inhibition (MEK2): 83
- kinase inhibition (MEK6): 95
- kinase inhibition (PDGFRB): 44
- kinase inhibition (ERK4): 74
- kinase inhibition (FLT4): 100
- kinase inhibition (LOK): 100
- kinase inhibition (ASK1): 100
- kinase inhibition [2]: 90
- kinase inhibition (p38-delta): 89
- kinase inhibition (BRSK1): 62
- kinase inhibition (SgK110): 100
- kinase inhibition [3]: 90
- kinase inhibition (LYN): 82
- kinase inhibition (NEK9): 100
- kinase inhibition (TRPM6): 100
- kinase inhibition (TRKA): 100
- kinase inhibition (IRAK4): 100
- kinase inhibition (ADCK3): 91
- Concentration [4]: 20 µM
- kinase inhibition (DCAMKL3): 92
- kinase inhibition (DRAK1): 45
- remaining binding (% of control) (PIP5K2C; 10 µM): 2.3
- remaining binding at 10 µM (PIP5K2C; read-out: % Of control): 2.3%
- remaining binding (% of control) (GCN2(Kin.Dom.2S808G)): 100
- kinase inhibition (MLCK): 96
- kinase inhibition (TNK2): 100
